This note sets out measurements from patent US20260049062A1, “SARS-COV-2 INHIBITORS FOR TREATING CORONAVIRUS INFECTIONS” (Insilico Medicine IP Limited, priority 2021, published 2026).

The subject of the assay is SARS-CoV-2. Nature of the assay: In vitro antiviral cell-based assay (live SARS-CoV-2), plaque reduction assay in VeroE6 cells. The conditions noted are these: Severe acute respiratory syndrome coronavirus 2, Vero, read-out: Vero EC50 (μM). In general terms: In a plaque reduction assay, fewer plaques than in the control indicate reduced infectivity or spread.

As a reminder, the EC50 is the concentration at which the effect is half-maximal. For `CC(C(=O)NC1CCC(F)(F)CC1)(c1cncnc1)N(C(=O)[C@H](F)Cl)c1ccc(-c2cncs2)cc1` (single isomer, unassigned) [Example 1a], the EC50 was 0.1 to 1 µM.
